Measured values: PubChem BioAssay AID248 (DTP/NCI, 2004)
Several values for one entry are separate records, joined by “and”; a condition that tells them apart may be missing. Identical values can stand only once. Inconclusive results and toxic doses are left out. Cut-off read from the data, not from the text of the source: active = T/C of 150% or more; inactive = T/C below 125%.

System: L1210 leukemia ip in BDF1 mice, survival T/C
Test: NCI In Vivo Anticancer Drug Screen. Data for tumor model L1210 Leukemia (intraperitoneal) in B6D2F1 (BDF1) mice
Conditions: endpoint: mean survival time, higher = longer survival
In short: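 Each compound was tested against a transplantable tumor grown in mice. The endpoint was survival, with treated animals benchmarked against vehicle controls as a simple ratio.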

[1] = dose: 100.0 mg/kg/injection, schedule: Q01DX001 (ip), vehicle: carboxymethylcellulose (CMC)
[2] = dose: 200.0 mg/kg/injection, schedule: Q01DX001 (ip), vehicle: carboxymethylcellulose (CMC)
[3] = dose: 400.0 mg/kg/injection, schedule: Q01DX001 (ip), vehicle: carboxymethylcellulose (CMC)
[4] = dose: 100.0 mg/kg/injection, schedule: Q01DX009 (ip), vehicle: saline with Tween-80
[5] = dose: 200.0 mg/kg/injection, schedule: Q01DX009 (ip), vehicle: saline with Tween-80
[6] = dose: 400.0 mg/kg/injection, schedule: Q01DX009 (ip), vehicle: saline with Tween-80
[7] = dose: 50.0 mg/kg/injection, schedule: Q01DX009 (ip), vehicle: saline with Tween-80
[8] = dose: 100.0 mg/kg/injection, schedule: Q01DX001 (ip), vehicle: saline with Tween-80
[9] = dose: 200.0 mg/kg/injection, schedule: Q01DX001 (ip), vehicle: saline with Tween-80
[10] = dose: 400.0 mg/kg/injection, schedule: Q01DX001 (ip), vehicle: saline with Tween-80
[11] = dose: 100.0 mg/kg/injection, schedule: Q01DX001 (ip), vehicle: saline
[12] = dose: 200.0 mg/kg/injection, schedule: Q01DX001 (ip), vehicle: saline
[13] = dose: 400.0 mg/kg/injection, schedule: Q01DX001 (ip), vehicle: saline
[14] = dose: 100.0 mg/kg/injection, schedule: Q01DX009 (ip), vehicle: Klucel (hydroxypropylcellulose) (HPC)
[15] = dose: 100.0 mg/kg/injection, schedule: Q04DX003 (ip), vehicle: Klucel (hydroxypropylcellulose) (HPC)
[16] = dose: 200.0 mg/kg/injection, schedule: Q01DX009 (ip), vehicle: Klucel (hydroxypropylcellulose) (HPC)
[17] = dose: 200.0 mg/kg/injection, schedule: Q04DX003 (ip), vehicle: Klucel (hydroxypropylcellulose) (HPC)
[18] = dose: 400.0 mg/kg/injection, schedule: Q04DX003 (ip), vehicle: Klucel (hydroxypropylcellulose) (HPC)
[19] = dose: 100.0 mg/kg/injection, schedule: Q04DX002 (ip), vehicle: Klucel (hydroxypropylcellulose) (HPC)
[20] = dose: 200.0 mg/kg/injection, schedule: Q04DX002 (ip), vehicle: Klucel (hydroxypropylcellulose) (HPC)
[21] = dose: 400.0 mg/kg/injection, schedule: Q04DX002 (ip), vehicle: Klucel (hydroxypropylcellulose) (HPC)
[22] = dose: 100.0 mg/kg/injection, schedule: Q01DX009 (ip), vehicle: saline
[23] = dose: 200.0 mg/kg/injection, schedule: Q01DX009 (ip), vehicle: saline

Measured: T/C

CCn1c2ccccc2c2cc(N=C3C(=O)N(C)c4ccccc43)ccc21
inactive: [1] 95 % of control | [2] 95 % of control | [3] 95 % of control

CCOC(=O)c1cc(Cl)cc(C(=O)OCC)n1
inactive: [4] 111 % of control | [5] 107 % of control | [6] 102 % of control

O/N=C(\c1ccccc1)C(O)c1ccccc1 (stereo not given)
inactive: dose: 50.0 mg/kg/injection, schedule: Q01DX001 (ip), vehicle: carboxymethylcellulose (CMC) 113 % of control | [1] 105 % of control | [2] 105 % of control | [3] 102 % of control

O=C(O)c1c(I)c(I)c(I)c(I)c1C(=O)c1ccccc1
inactive: [7] 103 % of control | [4] 115 % of control | [5] 112 % of control

CC1(C)CCC(NC(=O)NCCF)CC1
inactive: dose: 9.5 mg/kg/injection, schedule: Q01DX001 (ip), vehicle: other 95 % of control | dose: 19.0 mg/kg/injection, schedule: Q01DX001 (ip), vehicle: other 102 % of control | dose: 38.0 mg/kg/injection, schedule: Q01DX001 (ip), vehicle: other 101 % of control

CC(=O)C(C(C)=O)c1cc(NS(=O)(=O)c2ccccc2)ccc1O
inactive: [8] 100 % of control | [9] 104 % of control | [10] 89 % of control

O=C(NNc1ccccc1OCc1ccccc1)C(F)(F)F
inactive: [8] 100 % of control | [9] 103 % of control | [10] 95 % of control

CCOC(Nc1cc(Cl)cc(Cl)c1)C(=O)c1ccccc1 (stereo not given)
inactive: [11] 97 % of control | [12] 91 % of control | [13] 91 % of control

CCOC(=O)c1ccc(C(=O)OCC)c(C#N)n1
inactive: [14] 102 % of control | [15] 100 % of control | [16] 97 % of control | [17] 93 % of control | [18] 95 % of control

O=C(O)CC(CS(=O)O)C(=O)O (stereo not given)
inactive: [8] 91 % of control

O=[N+]([O-])c1ccc(OCc2ccccc2)nc1
inactive: [4] 104 % of control | [5] 97 % of control | [6] 93 % of control

CCCCCCOC(=O)Nc1cccc2ccccc12
inactive: dose: 75.0 mg/kg/injection, schedule: Q01DX009 (ip), vehicle: saline 94 % of control | dose: 150.0 mg/kg/injection, schedule: Q01DX009 (ip), vehicle: saline 99 % of control | dose: 300.0 mg/kg/injection, schedule: Q01DX009 (ip), vehicle: saline 96 % of control

CCOC(=O)Nc1c(O)cccc1N1CCOCC1
inactive: [19] 101 % of control | [20] 101 % of control | [21] 104 % of control

CC(=O)Nc1c(Br)cc2c(c1Br)C(=O)c1ccccc1-2
inactive: [1] 97 % of control | [2] 87 % of control | [3] 97 % of control

CONS(=O)c1ccc(Cl)cc1 (stereo not given)
inactive: [19] 96 % of control | [20] 92 % of control | [21] 108 % of control

COC(=O)C(O)c1cccc(OC)c1 (stereo not given)
inactive: [4] 96 % of control | dose: 100.0 mg/kg/injection, schedule: Q04DX003 (ip), vehicle: saline with Tween-80 107 % of control | [5] 93 % of control | dose: 200.0 mg/kg/injection, schedule: Q04DX003 (ip), vehicle: saline with Tween-80 96 % of control | [6] 104 % of control | dose: 400.0 mg/kg/injection, schedule: Q04DX003 (ip), vehicle: saline with Tween-80 105 % of control

O=C(O)C(O)C(O)C(=O)O.O=C(O)C(O)C(O)C(=O)O.[O]=[V].[O]=[V] (stereo not given)
inactive: dose: 6.25 mg/kg/injection, schedule: Q01DX009 (ip), vehicle: saline 101 % of control and 110 % of control | dose: 6.25 mg/kg/injection, schedule: Q04DX003 (ip), vehicle: saline 92 % of control and 106 % of control | dose: 12.5 mg/kg/injection, schedule: Q01DX009 (ip), vehicle: saline 101 % of control and 96 % of control | dose: 12.5 mg/kg/injection, schedule: Q04DX003 (ip), vehicle: saline 92 % of control and 96 % of control | dose: 25.0 mg/kg/injection, schedule: Q01DX009 (ip), vehicle: saline 98 % of control and 94 % of control | dose: 25.0 mg/kg/injection, schedule: Q04DX003 (ip), vehicle: saline 96 % of control and 97 % of control and 109 % of control | dose: 50.0 mg/kg/injection, schedule: Q04DX003 (ip), vehicle: saline 104 % of control | dose: 100.0 mg/kg/injection, schedule: Q04DX003 (ip), vehicle: saline sonified 91 % of control

CC(=O)NC1C(NC(=O)CC(NC(=O)OCc2ccccc2)C(=O)O)OC(COC(C)=O)C(OC(C)=O)C1OC(C)=O (stereo not given)
inactive: dose: 50.0 mg/kg/injection, schedule: Q04DX002 (ip), vehicle: saline 91 % of control | dose: 100.0 mg/kg/injection, schedule: Q04DX002 (ip), vehicle: saline 94 % of control | dose: 200.0 mg/kg/injection, schedule: Q04DX002 (ip), vehicle: saline 100 % of control

O=C(O)CCC(=O)c1cccc2ccccc12
inactive: [22] 96 % of control | dose: 100.0 mg/kg/injection, schedule: Q04DX003 (ip), vehicle: saline 105 % of control | [23] 112 % of control | dose: 200.0 mg/kg/injection, schedule: Q04DX003 (ip), vehicle: saline 94 % of control | dose: 400.0 mg/kg/injection, schedule: Q04DX003 (ip), vehicle: saline 103 % of control

COc1cc(OC)c(OC)cc1OC
inactive: [4] 95 % of control | [5] 97 % of control

CNc1nc(=O)n(C2CCCO2)cc1C (stereo not given)
inactive: [11] 90 % of control | [12] 98 % of control | [13] 95 % of control

CCc1ccc(NC(=O)NCCCl)cc1
inactive: dose: 50.0 mg/kg/injection, schedule: Q01DX009 (ip), vehicle: Klucel (hydroxypropylcellulose) (HPC) 89 % of control | [1] 87 % of control | [14] 89 % of control | [19] 105 % of control | [2] 106 % of control | [16] 92 % of control | [20] 113 % of control | [3] 106 % of control

O=C(CCCc1ccc(N(CCCl)CCCl)cc1)NC1CCCC1
inactive: dose: 4.0 mg/kg/injection, schedule: Q12HX018 (ip), vehicle: other 103 % of control | dose: 6.0 mg/kg/injection, schedule: Q12HX018 (ip), vehicle: other 98 % of control | dose: 8.0 mg/kg/injection, schedule: Q12HX018 (ip), vehicle: other 103 % of control

Cc1ccc(NC(=O)COc2ccc(Cl)cc2Cl)cc1Cl
inactive: dose: 25.0 mg/kg/injection, schedule: Q01DX009 (ip), vehicle: saline with Tween-80 91 % of control | [7] 89 % of control | [4] 86 % of control | [5] 87 % of control | [6] 88 % of control

CN(N)Cc1cccc(O)c1
inactive: dose: 50.0 mg/kg/injection, schedule: Q01DX009 (ip), vehicle: saline 101 % of control | [22] 104 % of control | [23] 101 % of control

CCOC(OCC)C(O)CNc1ccc([N+](=O)[O-])cc1[N+](=O)[O-] (stereo not given)
inactive: [15] 98 % of control | [17] 101 % of control | [18] 103 % of control
